In US20200038399A1, “FORMULATIONS, METHODS, KIT, AND DOSAGE FORMS FOR TREATING BACTERIAL INFECTION” (Motif BioSciences Inc., priority 2016, published 2020):
Where two headings read alike, the source gives them in different places.

Key:
[1] = tested on: S. aureus 101; test: MIC determination; type: cell-based, Staphylococcus aureus; settings: Staphylococcus aureus, 101, 18 h; read-out: Minimum inhibitory concentrations (MIC)
Method: (§1) Minimum inhibitory concentration (MIC) determination.
(§2) In order to choose the appropriate concentrations to be tested in the checkerboard experiments, minimum inhibitory concentrations (MICs) were determined first. […] Table 6) in microtiter plates. Stock solutions (10 mg/ml) of reference antibiotics were prepared in DMSO (except for tobramycin, gentamicin, lomefloxacin, tetracycline) and stored at 4° C. The bacteria were grown in Mueller-Hinton Broth (BBL Mueller-Hinton Broth II, cation adjusted). S. pneumoniae was grown in Mueller-Hinton Broth supplemented with 5% (v/v) lysed sheep blood. For the growth of H. influenzae HTM (Haemophilus test medium) was used containing Mueller-Hinton broth, yeast extract ([…], Difco) and supplemented with NAD and hematin (HTM Supplement, Oxoid SR0158E). M. catarrhalis was grown in Brain Heart Infusion medium (Oxoid). The bacteria were incubated for 18 hours at 37° C. in ambient air except for S. pneumoniae, H. influenzae and M. catarrhalis, which were incubated in the presence of 5% CO2. The MIC was determined as the lowest concentration of an individual drug that lead to no visible growth.

[2] = tested on: S. pneumoniae 1/1; test: checkerboard synergy assay with iclaprim; type: cell-based, Streptococcus pneumoniae; settings: antibiotic in combination with iclaprim
Method: (§3) The synergistic potential of iclaprim against Gram-positive and Gram-negative bacteria was determined using the checkerboard assay as described in Eliopoulos GM and Moellering, Jr. RC (1991), Antimicrobial combinations, pp. 432-492, in V. Lorian (ed.), Antibiotics in laboratory medicine, 3rd Ed., The Williams & Wilkins Co., Baltimore, the entire disclosure of which is herein incorporated by reference, allowing multiple test concentrations of iclaprim to be assayed in the presence of various concentrations of the other antibiotic in microtiter plates. The same growth media and conditions were used as described in 3.2 below.
(§4) Two different dilutions were used for iclaprim depending on the MIC determined for the bacterium. […] Iclaprim and the other antibiotic being tested were also dispensed alone in the last row and in the last column, respectively, as controls.
(§5) The Fractional Inhibitory Concentrations (FIC) for each added agent were calculated and used to determine the sum of FIC (ΣFIC) indicative of the synergistic potential of a given combination as described in Veyssier P. (1999), Inhibiteurs de la dihydrofolate reductase, nitrohétérocycles (furanes) et 8-hydroxyquinoleines, pp. 995-1027, in A. Bryskier (ed.), Antibiotiques agents antibatériens et antifongiques, 1st Ed., Ellipses Edition Marketing SA, Paris, the entire disclosure of which is herein incorporated by reference. Synergy was defined whereby the ΣFIC was <0.5, indifference (no synergy nor antagonism) whereby ΣFIC was ≥0.5 but ≤4, and antagonism whereby ΣFIC was >4. Additivity as a special form of indifference was defined whereby the ΣFIC was ≥0.5 but <1, for example as described in Stevens, D L et al. (1998), In vitro antimicrobial effects of various combinations of penicillin and clindamycin against four strains of Streptococcus pyogenes, J. Antimicrob. Chemother. 42: 1266-1268, the entire disclosure of which is herein incorporated by reference.

[3] = tested on: S. pneumoniae 1/1; test: MIC determination; type: cell-based, Streptococcus pneumoniae; settings: Streptococcus pneumoniae; S. pneumoniae 1/1; 18 hours at 37° C., 5% CO2; read-out: Minimum inhibitory concentrations (MIC)
Method: as §1, §2

[4] = tested on: Klebsiella pneumoniae ATCC 33495; test: checkerboard synergy assay with iclaprim; type: cell-based; settings: antibiotic in combination with iclaprim; K. pneumoniae 33495
Method: as §3, §4, §5

[5] = tested on: Moraxella catarrhalis RA 21; test: checkerboard synergy assay with iclaprim; type: cell-based; settings: antibiotic in combination with iclaprim; M. catarrhalis RA 21
Method: as §3, §4, §5

[6] = tested on: Haemophilus influenzae ATCC 49766; test: checkerboard synergy assay with iclaprim; type: cell-based; settings: antibiotic in combination with iclaprim; H. influenzae 49766
Method: as §3, §4, §5

[7] = tested on: Streptococcus pneumoniae ATCC 49619; test: checkerboard synergy assay with iclaprim; type: cell-based; settings: antibiotic in combination with iclaprim; S. pneumoniae 49619
Method: as §3, §4, §5

[8] = tested on: Staphylococcus aureus ATCC 25923; test: checkerboard synergy assay with iclaprim; type: cell-based; settings: antibiotic in combination with iclaprim; S. aureus 25923
Method: as §3, §4, §5

[9] = tested on: Klebsiella pneumoniae ATCC 33495; test: MIC determination; type: cell-based; settings: Klebsiella pneumoniae, ATCC33495; K. pneumonia 33495; 18 hours at 37° C.; read-out: Minimum inhibitory concentrations (MIC)
Method: as §1, §2

[10] = tested on: Moraxella catarrhalis RA 21; test: MIC determination; type: cell-based; settings: Moraxella catarrhalis, RA21; M. catarrhalis RA 21; 18 hours at 37° C., 5% CO2; read-out: Minimum inhibitory concentrations (MIC)
Method: as §1, §2

[11] = tested on: Haemophilus influenzae ATCC 49766; test: MIC determination; type: cell-based; settings: Haemophilus influenzae, read-out: Minimum inhibitory concentrations (MIC)
Method: as §1, §2

[12] = tested on: Streptococcus pneumoniae ATCC 49619; test: MIC determination; type: cell-based; settings: Streptococcus pneumoniae, ATCC49619; S. pneumoniae 49619; 18 hours at 37° C., 5% CO2; read-out: Minimum inhibitory concentrations (MIC)
Method: as §1, §2

[13] = tested on: Staphylococcus aureus ATCC 25923; test: MIC determination; type: cell-based; settings: Staphylococcus aureus, ATCC25923; S. aureus 25923; 18 hours at 37° C.; read-out: Minimum inhibitory concentrations (MIC)
Method: as §1, §2

[14] = tested on: S. aureus 101; test: checkerboard synergy assay with iclaprim; type: cell-based, Staphylococcus aureus; settings: antibiotic in combination with iclaprim
Method: as §3, §4, §5

[15] = ATCC49766, H. Influenza 49766, 18 hours at 37° C., 5% CO2

SMILES	MIC [1]	Σ FIC [2]	MIC [3]	Con (Conclusion) [4]	Σ FIC [4]	Con (Conclusion) [5]	Σ FIC [5]	Con (Conclusion) [6]	Σ FIC [6]	Σ FIC [7]	Σ FIC [8]	MIC [9]	MIC [10]	MIC [11, 15]	MIC [12]	MIC [13]	Σ FIC [14]	MIC ([11]; ATCC49766, 18 h)
CCC[C@@H]1C[C@@H](C(=O)N[C@@H]([C@H]2O[C@H](SC)[C@H](O)[C@@H](O)[C@H]2O)[C@H](C)Cl)N(C)C1 [Clindamycin]	0.25 µg/mL	0.63-1.06	0.125 µg/mL	Ind (Indifference (Ind))	1.01-1.50	Ind (Indifference (Ind))	1.00-1.25	Ind (Indifference (Ind))	1.13-1.50	1.00-1.25	2.02-2.48	> 128 µg/mL	4 µg/mL	8 µg/mL	0.125 µg/mL	0.25 µg/mL	2.03-2.50	
C[C@H]1c2cccc(O)c2C(=O)C2=C(O)[C@]3(O)C(=O)C(C(N)=O)=C(O)[C@@H](N(C)C)[C@@H]3[C@@H](O)[C@@H]21 [Doxycycline]	16 µg/mL	1.25-1.50	2 µg/mL	Ind (Indifference (Ind))	1.01-1.50	Ind (Indifference (Ind))	1.02-1.50	Ind (Indifference (Ind))	1.00-1.00	1.02-1.51	1.02-1.50	> 128 µg/mL	0.5 µg/mL	0.5 µg/mL	0.5 µg/mL	0.5 µg/mL	1.06-1.50	
NC[C@H]1O[C@H](O[C@H]2[C@H](O)[C@@H](O[C@H]3O[C@H](CO)[C@@H](O)[C@H](N)[C@H]3O)[C@H](N)C[C@@H]2N)[C@H](N)C[C@@H]1O [Tobramycin]	> 128 µg/mL	0.63-1.13	32 µg/mL	Ad (Additivity (Ad))	0.52-1.13	Ad (Additivity (Ad))	0.63-1.25	Ind (Indifference (Ind))	1.02-1.50	1.00-1.25	0.99-1.25	1 µg/mL	4 µg/mL	0.5 µg/mL	32 µg/mL	0.5 µg/mL	1.01-1.50	
CC[C@H]1OC(=O)[C@H](C)[C@@H](O[C@H]2C[C@@](C)(OC)[C@@H](O)[C@H](C)O2)[C@H](C)[C@@H](O[C@@H]2O[C@H](C)C[C@H](N(C)C)[C@H]2O)[C@](C)(O)C[C@@H](C)C(=O)[C@H](C)[C@@H](O)[C@]1(C)O [Erythromycin]	> 128 µg/mL	1.06-1.50	0.125 µg/mL	Ad (Additivity (Ad))		Ind (Indifference (Ind))	1.06-1.50	Ad (Additivity (Ad))	0.75-1.00	1.06-1.50	1.13-1.50	128 µg/mL	0.125 µg/mL	8 µg/mL	0.125 µg/mL	0.5 µg/mL	1.01-1.50	
CN(C)[C@@H]1C(O)=C(C(N)=O)C(=O)[C@@]2(O)C(O)=C3C(=O)c4c(O)cccc4[C@@](C)(O)[C@H]3C[C@@H]12 [Tetracycline, Tetracyclin]	128 µg/mL	0.75-1.13	16 µg/mL	Ad (Additivity (Ad))	0.56-1.03	Ind (Indifference (Ind))	1.13-1.50	Ad (Additivity (Ad))	0.56-1.25	0.75-1.25	2.05-2.48	128 µg/mL	0.25 µg/mL		0.25 µg/mL	0.5 µg/mL	1.02-2.50	0.5 µg/mL
CCN1CCN(C(=O)N[C@@H](C(=O)N[C@@H]2C(=O)N3[C@@H]2SC(C)(C)[C@@H]3C(=O)O)c2ccccc2)C(=O)C1=O [Piperacillin]	> 128 µg/mL	0.63-1.13	8 µg/mL	Ad (Additivity (Ad))	0.53-1.25	Ind (Indifference (Ind))	1.03-1.50	Ad (Additivity (Ad))	0.54-1.25	1.02-1.50	1.06-1.50	32 µg/mL	0.25 µg/mL	0.031 µg/mL	2 µg/mL	0.5 µg/mL	1.01-1.50	
CCn1cc(C(=O)O)c(=O)c2cc(F)c(N3CCNCC3)cc21 [Norfloxacin]	128 µg/mL	1.13-1.50	4 µg/mL	Ad (Additivity (Ad))	0.75-1.13	Ad (Additivity (Ad))	0.56-1.13	Ad (Additivity (Ad))	0.52-1.25	1.00-1.25	0.56-1.25	2 µg/mL	0.5 µg/mL	0.125 µg/mL	4 µg/mL	1 µg/mL	1.02-1.50	
CC[C@H]1OC(=O)[C@H](C)[C@@H](O[C@H]2C[C@@](C)(OC)[C@@H](O)[C@H](C)O2)[C@H](C)[C@@H](O[C@@H]2O[C@H](C)C[C@H](N(C)C)[C@H]2O)[C@](C)(O)C[C@@H](C)/C(=N\OCOCCOC)[C@H](C)[C@@H](O)[C@]1(C)O [Roxithromycin]	> 128 µg/mL	0.75-1.13	0.5 µg/mL	Ind (Indifference (Ind))	1.01-1.50	Ind (Indifference (Ind))	1.03-1.50	Ind (Indifference (Ind))	1.03-1.50	1.02-1.50	1.06-1.50	> 128 µg/mL	0.25 µg/mL	16 µg/mL	0.5 µg/mL	1 µg/mL	1.01-1.80	
